Read-outs that look alike come from different tables or passages of the source.
Key:
[1] = Phase I dose-escalation study: DLT, MTD and adverse events
Experimental: Patients over the age of 18 were required to be of ECOG performance status 0, 1 or 2, and to have a predicted survival of at least 3 months.
This was a phase I, open-label, dose-escalation study. BB-3644 was supplied as capsules comprising 5, 10, 20 and 40 mg BB-3644 (with maize starch, colloidal silica, magnesium stearate and lactose) by British Biotech Pharmaceuticals Ltd, UK. BB-3644 was administered orally twice daily for 84 days to cohorts of patients at doses 5, 10, 20 and 30 mg. […] Dose-limiting toxicity was defined as ‘an adverse reaction likely to be caused by the study drug and unlikely to be attributed to concurrent disease or other drugs or chemicals’. Essentially, any toxicity graded by CTC criteria as at least grade II was considered to be a DLT, as this could preclude chronic oral administration of a drug. If one patient experienced DLT, the cohort size was increased to six patients for that dose level. Further dose escalation was performed, provided that no more than […] patients experienced DLT by day 28. Nine patients were to be treated at the highest dose level. Patients experiencing DLT were eligible to continue treatment at a reduced dose following resolution of toxicity.
Physical examination, chest radiograph, haematology and serum chemistry were checked at baseline, every 4 weeks and at study termination. […] Patients were also reviewed by an opthalmologist at these times, to check the visual acuity, visual fields, and examine the whole eye and the fundi.

[2] = clinical; conditions: human, in vivo; for half-life: T1/2; for AUC(0-t): AUC0–24
Experimental: Blood samples were collected in heparinised tubes before treatment, every 15 min for 2 h, at 2 h 30 min, 3, 4, 6, 8, 10 and 24 h on days 1 and 14 for the measurement of BB-3644. Blood samples were kept on ice. They were centrifuged at 4°C (1500 g for 10 min) within 30 min of collection. The supernatant plasma was collected and frozen at −70°C or cooler, until sent for analysis. Samples were analysed centrally in the Department of Drug Metabolism and Pharmacokinetics at British Biotech, UK.
Samples were analysed for BB-3644 content using a validated reverse-phase HPLC method with mass spectrometric detection. The limit of quantification was 1 ng ml^−1. The data were analysed using WinNonlin v2.1 Standard version (Pharsight Corporation, USA). PK parameters were derived from individual plasma concentration–time data, using noncompartmental analysis.
On the days of PK sampling, only the morning dose of BB-3644 was taken.

[3] = test system: solid tumours; assay: Assessment of response in the phase I study; type: in vivo, patients
Experimental: Disease assessment was performed at baseline and repeated at 84 days or at withdrawal from the study. Patients were reviewed 4 weeks after withdrawal from the study.
Response was formally assessed radiologically after 3 months of therapy.

[4] = molecular target: collagenase-3; conditions: background data, no reference given; read-out: IC50 against collagenase-3; cited from earlier work
[5] = molecular target: gelatinase A; conditions: background data, no reference given; read-out: IC50 against gelatinase A; cited from earlier work
[6] = molecular target: enkephalinase; conditions: background data, no reference given; read-out: IC50 against enkephalinase; cited from earlier work
[7] = test system: processing of cell-bound TNF-α; conditions: relative to marimastat; background data, no reference given; cited from earlier work
[8] = test system: MDA-435 human breast carcinoma; set-up: method as in British Biotech, unpublished data; conditions: MDA-435 human breast carcinoma model; ref British Biotech, unpublished data; cited from earlier work
[9] = test system: B16-BL6 murine melanoma; set-up: method as in British Biotech, unpublished data; conditions: B16-BL6 murine melanoma model; ref British Biotech, unpublished data; cited from earlier work
[10] = test system: HODP.IP rat mammary carcinoma cells; set-up: method as in British Biotech, unpublished data; conditions: lung colonisation model, ref British Biotech, unpublished data; cited from earlier work
[11] = set-up: method as in British Biotech, unpublished data; conditions: marmosets; ref British Biotech, unpublished data; cited from earlier work
[12] = rhesus monkey, in vivo; cited from earlier work
[13] = cited from earlier work
[14] = ref Wojtowicz-Praga et al, 1998, cited from earlier work
[15] = of the 13 patients that completed 12 weeks of therapy

CO[C@H](C(=O)NO)[C@@H](CC(C)C)C(=O)N[C@H](C(=O)Nc1ccccn1)C(C)(C)C [BB-3644]
maximum tolerated dose (MTD) ([1]; 28 days of oral treatment): 20 mg bd
maximum tolerated dose (MTD) ([1]; chronic oral dosing (>28 days, up to 84 days)): 5 mg bd
patients with musculoskeletal DLTs (number) ([1]; human, in vivo, 84 days): 14
patients with musculoskeletal DLTs (share) ([1]; human, in vivo, 84 days): 64%
SAE considered possibly related to the study drug ([1]; in vivo): thromboembolic episodes
ophthalmological or gall bladder-related toxicity ([1]; in vivo): no significant opthalmological or gall bladder-related toxicity
patients who developed phlebitis ([1]; in vivo): Two
patients with dose-limiting malaise (NCI CTC toxicity >grade 1) ([1]; in vivo): Two
dose-limiting toxicity (DLT), nature ([1]; in vivo, po): musculoskeletal pain
time to mean maximal concentration, range over dose levels [2]: 30 to 90 min
T1/2 ([2]; 5 mg): 4 h
Tmax ([2]; 5 mg): 1 h
half-life ([2]; 5 mg): 2 h
Tmax ([2]; 5 mg, Tmax): 0.75 h
Cmax ([2]; 10 mg): 179 ng/mL
T1/2 ([2]; 10 mg): 2.5 h
Tmax ([2]; 10 mg): 1 h
Cmax ([2]; 10 mg, Cmax): 114 ng/mL
half-life ([2]; 10 mg): 1.5 h
Tmax ([2]; 10 mg, Tmax): 0.5 h
AUC0–24 ([2]; 20 mg): 1248 ng·h/mL
Cmax ([2]; 20 mg): 282 ng/mL
T1/2 ([2]; 20 mg): 3 h
Tmax ([2]; 20 mg): 0.75 h
AUC(0-t) ([2]; 20 mg): 781 ng·h/mL
Cmax ([2]; 20 mg, Cmax): 232 ng/mL
half-life ([2]; 20 mg): 1.5 h
Tmax ([2]; 20 mg, Tmax): 0.5 h
AUC0–24 ([2]; 30 mg): 4401 ng·h/mL
Cmax ([2]; 30 mg): 536 ng/mL
Tmax ([2]; 30 mg): 1.75 h
AUC(0-t) ([2]; 30 mg): 2520 ng·h/mL
Cmax ([2]; 30 mg, Cmax): 315 ng/mL
half-life ([2]; 30 mg): 6 h
Tmax ([2]; 30 mg, Tmax): 1.5 h
therapeutic activity, overall conclusion ([3]; 22 patients, 5 to 30 mg bd): no evidence of beneficial therapeutic activity
patients with progressive disease radiologically [3, 15]: 11
patients with stable disease radiologically [3, 15]: two
IC50 [4]: 3 nM
IC50 [5]: 80 nM
IC50 [6]: 40 nM
fold more active than marimastat in inhibiting the processing of cell-bound TNF-α [7]: > 10 fold
activity in inhibiting tumour growth [8]: activity in inhibiting tumour growth
activity in inhibiting tumour growth [9]: activity in inhibiting tumour growth
tendinitis of the hind limbs [10]: did not cause tendinitis of the hind limbs
joint toxicity [11]: induced inflammation of joint ligaments and tendons
principal toxicity [11]: cell debris in the gall bladder, with mucosal erosions and epithelial hyperplasia
principal toxicity [12]: cell debris in the gall bladder, with mucosal erosions and epithelial hyperplasia
toxicity at higher doses ([13]; dog, in vivo): Encephalopathy
ocular changes ([13]; dogs, ref British Biotech, unpublished data): conjunctival hyperaemia, chemosis, corneal stromal limbal vascularisation and diffuse corneal haze and flocculation

CNC(=O)[C@@H](NC(=O)[C@H](CC(C)C)[C@H](O)C(=O)NO)C(C)(C)C [marimastat]
treatment-limiting toxicities ([14]; clinical testing of marimastat, Tierney et al, 1999, Evans et al, 2001): Musculoskeletal pain and inflammation
AUC achieved at the MTD ([14]; phase I studies of marimastat): 2623 ng·h/mL

— paper PMC2410175, “A phase I and pharmacological study of the matrix metalloproteinase inhibitor BB-3644 in patients with solid tumours” (British Journal of Cancer, 2004)
